Assay [1] relates to CCl4 treated, liver injury model animals. The assay can be described thus: Antioxidant enzymes in liver (GSH, GSHPx, catalase, SOD). The format is in vivo, Sprague-Dawley (SD) rats. The settings on record: CCl4-treated rats, 8 weeks. The protocol:
(§1) The animal model was performed with five-week-old Sprague-Dawley (SD) rats purchased from BioLasco Taiwan Co., Ltd. Healthy rats weighing 220-270 g were chosen for experiment after observing for 2 weeks in the laboratory animal room. The rats were randomly divided into 6 groups (12 rats/group): normal (gp. A); control groups including model control (gp. B) and positive control (gp. C, animals receiving silymarin); treatment groups including animals receiving 300 mg/kg of cyclohexenone (gp. D), 1000 mg/kg of cyclohexenone (gp. E), and 3000 mg/kg of cyclohexenone (gp. F), as indicated in Table 1. Only normal group was not poisoned with CCl4. The body weights were recorded to calculate the dosage. […] It helps to remove toxins from liver cells by either neutralizing the toxicity of toxic compounds or competing with the binding sites in liver. It is a potent antioxidant, protects the liver from free radicals. It has been widely studied for treating various types of liver injury in animals and clinical trials. The beneficial effects on liver protection have made silymarin a good medicine for liver diseases and a drug in positive control group for the animal model of liver injury.
(§2) Rats in normal group (group A) were fed with corn oil (Sigma chemical co.) by means of stomach tubes. Carbon tetrachloride (Shimakyu, Osaka, Japan) was administered to groups B to F via stomach tubes twice weekly (every Tuesday and Thursday afternoon) for 8 weeks, at a dose of 2 ml/kg of body weight, diluted with corn oil. Silymarin was prepared with saline in an amount of 200 mg/kg of body weight and was fed to rats of group C via a stomach tube. Cyclohexenone prepared from example 1 was mixed with saline, and fed in the amounts of 300 mg/kg, 1000 mg/kg and 3000 mg/kg of body weight to rats of group D to F via stomach tubes. The total feeding volume was estimated in the ratio of 10 ml/kg of body weight to groups C to F five days a week (every morning) for 8 weeks. The body weights of rats and the amounts of food intake in rats for each group were shown in FIG. 1 and FIG. 2, respectively.
The liver stored at −80° C. as described above was immersed in PBS buffer (phosphate buffered saline solution, pH 7.4) containing 0.16 mg/ml heparin. Red blood cells were removed from the tissue. Liver was prepared as 1.0 g tissue/10 mL buffer homogenates in fresh, chilled 50 mM phosphate, 1 mM EDTA (pH 6-7) buffer using a Polytron homogenizer (setting 5, PT 10 probe, Brinkmann Instruments, Westbury, N.Y.) for one min. The solution was centrifuged at 10,000×g for 15 min at 4° C. Protein concentration was determined with a BCA protein assay kit (Pierce, Ill., USA) at 550 nm using an enzyme linked immunosorbent assay (ELISA) reader (MAX ELISA Reader, Quant, Bio-Tek Instrument, Vermont, USA). Commercial kits of glutathione (GSH), glutathione peroxidase (GSHPx), catalase (CAT), superoxide dismutase (SOD) (Glutathione Assay Kit, Cat No. 703002; Glutathione Peroxidase Assay Kit, Cat No. 703102; Catalase Assay Kit, Cat No. 707002; Superoxide Dismutase Assay Kit, Cat No. 706002) were purchased from Cayman Chemical Company (MI.USA) and assayed by reading at 405 nm, 340 nm, 540 nm and 450 nm using an ELISA reader. Deprotein step was carried out for all the assays mention above except SOD assay. Proteins were precipitated by mixing with equal volume of 10% metaphosphoric acid (w/v), vortex-mixed evenly, centrifuged at 2,000×g for 2 min. The supernatant was removed for enzyme assay. All values are expressed as mean ±SD, which were evaluated using One-way Analysis of Variance. Those with significant differences were further tested with the Least Significant Difference Test (LSD) or Student t-test to compare cyclohexenone treatment groups and normal groups, positive control and model groups. P<0.05 was selected as criterion for statistical significance in all cases.

In assay [2] the test system is CCl4 induced liver injury in rats. The assay can be described thus: Serum indicators of liver function (ALT, AST, cholesterol). The format is in vivo, Sprague-Dawley (SD) rats. The settings on record: CCl4-treated rats, 8 weeks. The protocol: as §1, §2
All rats were sacrificed at the end of the 8th week of experiment, blood samples were collected from abdominal aorta for assessing liver biochemical parameters. Five ml of blood were transferred to a tube and centrifuged at 775×g for 15 min. 0.5 ml of serum was analyzed on an Express plus automatic clinical chemistry analyzer (Chiron diagnostics corporation, OH, USA) with commercial kits of ALT (Bayer diagnostics, Cat No. E36941), AST (Bayer diagnostics, Cat No. E37041) and cholesterol (Bayer diagnostics, Cat No. E33940). All values are expressed as mean ±SD, which were evaluated using One-way Analysis of Variance. Those with significant differences were further tested with the Least Significant Difference Test (LSD) or Student t-test to compare cyclohexenone treatment groups and normal groups, positive control and model groups. P<0.05 was selected as criterion for statistical significance in all cases.

Where [3] appears, read: cyclohexenone 1000 mg/kg, listed as cyclohexenone.

Molecules are shown by their SMILES. Marks after values point to notes of the source that are not given here.

For `COC1=C(OC)C(O)C(C/C=C(\C)CC/C=C(\C)CCC=C(C)C)C(C)C1=O` (centres unmarked) [Cyclohexenone from Antrodia camphorata, 4-hydroxy-2,3-dimethoxy-6-methyl-5(3,7,11-trimethyl-dodeca-2,6,10-trienyl)-cyclohex-2-enone], the Catalase in assay [1] (cyclohexenone 300 mg/kg) came to 9.1 ± 1.0 U/mg protein; in assay [1] (cyclohexenone 1000 mg/kg), 10.1 ± 1.4 U/mg protein; in assay [1] (cyclohexenone 3000 mg/kg) it was 9.8 ± 0.9 U/mg protein. Also, the figures for the “GSH (Glutathione activity)” value in assay [1] (cyclohexenone 300 mg/kg), in assay [1] (cyclohexenone 1000 mg/kg) and in assay [1] (cyclohexenone 3000 mg/kg) were 30.3 ± 3.2 uM/mg protein, 25.2 ± 1.8*^a uM/mg protein and 26.7 ± 4.3*^a uM/mg protein, respectively. In addition, the “GSHPx (glutathione peroxidase activity)” value turned out to be 9.6 ± 1.7 nmol/min/mL in assay [1] (cyclohexenone 300 mg/kg), 11.2 ± 3.4 nmol/min/mL in assay [1] (cyclohexenone 1000 mg/kg) and 10.6 ± 3.1 nmol/min/mL in assay [1] (cyclohexenone 3000 mg/kg). For the same compound, the SOD was determined as 0.47 U/mg protein in assay [1] (cyclohexenone 300 mg/kg), 0.52 ± 0.28 U/mg protein in assay [1] (cyclohexenone 1000 mg/kg) and 0.73 ± 0.23 U/mg protein in assay [1] (cyclohexenone 3000 mg/kg). The ALT in assay [2] (cyclohexenone 300 mg/kg) was determined as 226.6 ± 138.7 a U/L; in assay [2] (cyclohexenone 1000 mg/kg) it was 181.7 ± 78.4 a U/L; in assay [2] (setting [3]), 181.7±78.4 U/L; in assay [2] (cyclohexenone 3000 mg/kg), 206.0 ± 98.4 a U/L. Moreover, the AST was determined as 323.4 ± 189.0 U/L in assay [2] (cyclohexenone 300 mg/kg), 283.2 ± 144.2 U/L in assay [2] (cyclohexenone 1000 mg/kg), 283.2±144.2 U/L in assay [2] (setting [3]) and 311.7 ± 99.6 U/L in assay [2] (cyclohexenone 3000 mg/kg). Also, the values for the Cholesterol in assay [2] (cyclohexenone 300 mg/kg), in assay [2] (cyclohexenone 1000 mg/kg) and in assay [2] (cyclohexenone 3000 mg/kg) were 63.7 ± 15.1 mg/dL, 69.6 ± 14.8 mg/dL and 62.1 ± 16.2 mg/dL, respectively.

The values are drawn from US7456225B1, “Liver protection compounds of the cyclohexenone type from Antrodia camphorata” (Golden Biotechnology Corporation, priority 2007, dated 2008).
